In patent publication US6002009A, “Di-substituted 1,4-piperidine esters and amides having 5-HT4 antagonistic activity” (Boehringer Ingelheim Italia, S.p.A., priority 1995, dated 1999) one finds Ki data, which are given here for 17 compounds.

Sequence of 5-HT4 receptor (Q6Q253 1-402): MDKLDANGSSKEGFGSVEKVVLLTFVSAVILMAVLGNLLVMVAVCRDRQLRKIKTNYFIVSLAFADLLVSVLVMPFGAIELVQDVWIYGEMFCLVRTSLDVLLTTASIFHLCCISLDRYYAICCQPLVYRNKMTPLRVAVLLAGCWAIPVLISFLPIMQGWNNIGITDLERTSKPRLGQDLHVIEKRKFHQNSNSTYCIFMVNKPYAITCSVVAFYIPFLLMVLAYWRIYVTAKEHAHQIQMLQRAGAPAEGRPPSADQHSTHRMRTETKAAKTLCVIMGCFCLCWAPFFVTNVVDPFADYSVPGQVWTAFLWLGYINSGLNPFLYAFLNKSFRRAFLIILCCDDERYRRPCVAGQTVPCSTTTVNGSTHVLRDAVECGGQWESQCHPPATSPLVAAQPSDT

The experiment has as its target 5-HT4 receptor (Sus scrofa, UniProt Q6Q253). In words: 5-HT4 receptor binding (competition against [^3 H]-GR 113808, pig striatum). The note with it: 0.1 nM [^3 H]-GR 113808, 30 min at 37° C., read-out: Ki (affinity for the 5-HT4 receptor). Here is the method:
The affinity of the compounds of formula (I) for 5-HT4 serotoninergic receptors was tested "in vitro" by receptor binding studies in the pig striatum, a tissue particularly rich in 5-HT4 receptors.
Receptor binding studies on 5-HT4 receptor were carried out to determine the affinity of the test compounds.
Pig striatum was removed, cleaned and homogenized (w/v 1:70) with an Ultra-Turrax at maximal speed for 30 s, followed by use of a Potter-Elvehjem homogenizer (30 strokes) in 50 mM Hepes buffer, pH 7.4 and filtered through two layers of cheese-cloth.
Binding curves for the different compounds were derived indirectly from competition experiments against 0.1 nM [^3 H]-GR 113808.
A 1 ml aliquot of homogenate was incubated for 30 min at 37° C. in the presence of the marker ligand and different concentrations of the cold ligands.
The incubation was stopped by rapid filtration using an automatic apparatus (1H -110 Inotech). The filters (Inotech glass fibre filter, type G7) were then transferred to scintillation vials containing 4 ml of Filter Count (Packard) and the radioactivity present was counted by liquid scintillation spectrometry (Kontron Betamat V). Assays were carried out in triplicated and non specific binding was defined as the radioactivity bound or entrapped in the filter when the incubation medium contained 10 μM of BIMU 0001 (3-ethyl-2,3-dihydro-2-oxo-benzimidazole-1(3a-tropyl carboxamide). Non specific binding was about 10-15%. The inhibition constant (Ki) was calculated after correction for the radioligand occupancy shift according to the equation of Cheng and Prusoff (Biochem. Pharmacol. 22, 3099, 1973).
As for `CCNC(=O)N[C@@H](Cc1c[nH]c2ccccc12)CN1CCC(COC(=O)c2cc(Cl)c(N)cc2OC)CC1` [Compound 1, S(+)-4-Amino-5-chloro-2-methoxy-benzoic acid {1-[2-(3-ethyl-ureido)-3-(1H-indol-3-yl)propyl]piperidin-4-yl} methyl, ester], the Ki came out at 4.6 nM.

For the compound `CCOC(=O)N[C@@H](CCSC)CN1CCC(COC(=O)c2cc(Cl)c(N)cc2OC)CC1` [Compound 9, S(+)-4-Amino-5-chloro-2-methoxy-benzoic acid [1-(2-ethoxycarbonyl-amino-4-methylthio-butyl)-piperidin-4-yl]methyl ester], the Ki came out at 4.3 nM.

Regarding `COc1cc(N)c(Cl)cc1C(=O)OCC1CCN(C[C@H](Cc2c[nH]c3ccccc23)NC(=O)OCc2ccccc2)CC1` [Compound 10, S(+)-4-Amino-5-chloro-2-methoxybenzoic acid {1-[2-benzyloxycarbonyl-amino-3-(1H-indol-3-yl)-propyl]piperidin-4-yl} methyl ester], the Ki was found to be 2.1 nM.

Turning to `COc1cc(N)c(Cl)cc1C(=O)OCC1CCN(C[C@H](Cc2ccccc2)NC(=O)OCc2ccccc2)CC1` [Compound 11, S(+)-4-Amino-5-chloro-2-methoxybenzoic acid [1-(2-benzyloxycarbonyl-amino-3-phenyl-propyl)-piperidin-4-yl]methyl ester], the inhibitory constant (Ki) was determined as 1.1 nM.

Turning to `CCOC(=O)N[C@@H](CO)CN1CCC(COC(=O)n2c3ccccc3c3ccccc32)CC1` [Compound 12, R(+)-Carbazole-9-carboxylic acid [1(2-ethoxycarbonyl-amino-3-hydroxy-propyl)-piperidin-4-yl]methyl ester], the Ki is 2.8 nM.

Turning to `CCNC(=O)N[C@@H](CO)CN1CCC(COC(=O)n2c3ccccc3c3ccccc32)CC1` [Compound 13, R(+)-Carbazole-9-carboxylic acid {1-[2-(3-ethyl-ureido)-3-hydroxy-propyl]-piperidin-4-yl} methyl ester], the Ki amounted to 4.3 nM.

As to `O=C(Nc1ccccc1)N[C@@H](CO)CN1CCC(COC(=O)c2c[nH]c3ccc(F)cc23)CC1` [Compound 16, R(+)-5-Fluoro-1H-indol-3-carboxylic acid {1-[2-(3-phenyl-ureido)-3-hydroxy-propyl]-piperidin-4-yl} methyl ester], the Ki was determined as 2.9 nM.

Regarding `COc1[nH]c2ccc(F)cc2c1C(=O)OCC1CCN(C[C@H](CO)NC(=O)OCc2ccccc2)CC1` [Compound 17, R(+)-5-Fluoro-2-methoxy-1H-indol-3-carboxylic acid [1-(2-benzyloxycarbonyl-amino-3-hydroxy-propyl)-piperidin-4-yl]methyl ester], the inhibition constant (Ki) stood at 0.16 nM.

With `CCOC(=O)N[C@@H](CO)CN1CCC(COC(=O)c2c(OC)[nH]c3ccc(F)cc23)CC1` [Compound 19, R(+)-5-Fluoro-2-methoxy-1H-indol-3-carboxylic acid [1-(2-ethoxycarbonyl-amino-3-hydroxy-propyl)piperidin-4-yl]methyl ester], the Ki came out at 0.25 nM.

As to `C[C@@H](CN1CCC(COC(=O)n2c(=O)[nH]c3ccccc32)CC1)NC(=O)OCc1ccccc1` [Compound 21, S(+)-2-Oxo-2,3-dihydro-benzimidazol-1-carboxylic acid [1-(2-benzyloxycarbonyl-amino)-propyl-piperidin-4-yl]-methyl ester], the Ki is 1.3 nM.

For `CCn1c(=O)n(C(=O)OCC2CCN(C[C@H](C)NC(=O)OCc3ccccc3)CC2)c2ccccc21` [Compound 23, S(+)-3-Ethyl-2-oxo-2,3-dihydro-benzimidazol-1-carboxylic acid [1-(2-benzyloxycarbonyl-amino)-propyl-piperidin-4-yl]-methyl ester], the Ki was 0.86 nM.

On to `CCn1c(=O)n(C(=O)NCC2CCN(C[C@H](CCSC)NC(=O)Nc3ccccc3)CC2)c2ccccc21` [Compound 26, S(-)-3-Ethyl-2-oxo-2,3-dihydro-benzimidazol-1-carboxamide-{1-[2-(3-phenyl-ureido)-4-methylthio-butyl]-piperidin-4-yl-methyl}], for which the Ki was 1 nM.

With `CCn1c(=O)n(C(=O)NCC2CCN(C[C@H](CC(N)=O)NC(=O)Nc3ccccc3)CC2)c2ccccc21` [Compound 30, S(+)-3-Ethyl-2-oxo-2,3-dihydro-benzimidazol-1-carboxamide-{1-[2-(3-phenyl-ureido)-3-carbamoyl-propyl]-piperidin-4-yl-methyl}], the Ki is 4.3 nM.

With `CCOC(=O)N[C@@H](CCSC)CN1CCC(CNC(=O)n2c(=O)n(CC)c3ccccc32)CC1` [Compound 34, S(+)-3-Ethyl-2-oxo-2,3-dihydro-benzimidazol-1-carboxamide-[1-(2-ethoxycarbonylamino-4-methylthio-butyl)-piperidin-4-yl-methl]], the Ki amounted to 3.2 nM.

Consider `CCn1c(=O)n(C(=O)NCC2CCN(C[C@H](CO)NC(=O)Nc3ccccc3)CC2)c2ccccc21` [Compound 35, R(+)-3-Ethyl-2-oxo-2,3-dihydro-benzimidazol-1-carboxamide-{1-[2-(3-phenyl-ureido)-3-hydroxy-propyl]-piperidin-4-yl-methyl}], for which the Ki came out at 1.6 nM.

Regarding `CCNC(=O)N[C@@H](CO)CN1CCC(CNC(=O)n2c(=O)n(CC)c3ccccc32)CC1` [Compound 36], the Ki came to 3 nM.

As to `CCn1c(=O)n(C(=O)NCC2CCN(C[C@H](CO)NC(=O)OCc3ccccc3)CC2)c2ccccc21` [Compound 37, R(+)-3-Ethyl-2-oxo-2,3-dihydro-benzimidazol-1-carboxamide-[1-(2-benzyloxycarbonylamino-3-hydroxy-propyl)-piperidin-4-yl-methyl]], the Ki stood at 0.37 nM.

Usually Ki stands for the equilibrium dissociation constant of an inhibitor or competing ligand from its target.
